Data: paper PMC9521575, “Multiple tachykinins and their receptors characterized in the gastropod mollusk Pacific abalone: Expression, signaling cascades, and potential role in regulating lipid metabolism” (Frontiers in Endocrinology, 2022)
Blank lines part the entries; values can stand above or below the molecule they belong to. Non-standard residues stand in square brackets, D forms with d. Residues, ends and D or L forms follow the SMILES beside them. No end group written: not given here. pGlu = O=C1CC[C@@H](C(=O)O)N1

Assays:
[1] = tested on: Hdh-TKRL-mediated phosphorylation of ERK1/2; experiment: Western blotting of ERK1/2 phosphorylation in Hdh-TKRL-transfected HEK293 cells; format: cell-based, Human; details: inhibitor 10^-5 M pre-incubated 60 min, then Hdh-TK2-2 for 5 min, western blot
Method: (§1) HEK293 cells were seeded into 6-well plates (0.3 × 10^6 cells/well) and transfected with 3 μg of pcDNA3-HA-Hdh-TKR plasmids or vehicle pcDNA3-HA plasmid as described for the luciferase reporter assays. At 24 h after transfection, the cells were incubated with serum-free DMEM for 6 h at 37°C and then exposed to a PKA inhibitor (H89, 10^-5 M; Sigma-Aldrich) or PKC inhibitor (Gö6983, 10^-5 M; Sigma-Aldrich) for 60 min. After the medium was replace with fresh serum-free DMEM, the cells were exposed to Hdh-TK-2-2 peptide (5×10^-9 or 10^-7 M) or TPA (10^-7 M) for a further 5 min. The methods employed for cell lysate preparation, polyacrylamide gel electrophoresis, protein transfer to nitrocellulose membranes, and membrane washing were from a previous report ([39]). The membranes were incubated with a monoclonal mouse p44/42 MAPK, rabbit phospho-p44/42 MAPK (ERK1/2) (Thr202/Tyr204) (Cell Signaling, Danvers, MA, USA), or mouse GAPDH (Santa Cruz Biotechnology, Santa Cruz, CA, USA) primary antibody at 4°C for 16 h, followed by incubation with goat anti-mouse IgG-HRP or goat anti-rabbit IgG-HRP secondary antibody (Santa Cruz Biotechnology, Santa Cruz, CA, USA) at room temperature for 2 h. […]

[2] = tested on: Hdh-TKRS-mediated phosphorylation of ERK1/2; experiment: Western blotting of ERK1/2 phosphorylation in Hdh-TKRS-transfected HEK293 cells; format: cell-based, Human; details: inhibitor 10^-5 M pre-incubated 60 min, then Hdh-TK2-2 for 5 min, western blot
Method: as §1

[3] = tested on: Hdh-TKRL; experiment: Ca2+ mobilization assay (aequorin luminescence) in Hdh-TKRL-transfected CHO-K1 cells; format: cell-based, Haliotis discus hannai; details: Hdh-TKRL- and aequorin-expressing CHO-K1 cells; luminescence relative to maximal response at 10^-6 M; n = 3 or 4; read-out: EC50 on intracellular Ca2+ mobilization
Method: (§2) Ca^2+ mobilization assays were performed as described previously ([39]). Briefly, Chinese hamster ovary K1 (CHO-K1) cells were maintained in DMEM-F12 Nutrient Mixture Ham supplemented with 10% FBS (Hyclone) and 1% P/S (Invitrogen) at 37°C in 5% CO2. Cells were grown in a monolayer to 60% confluency in 100 mm dishes (1.5 × 10^6 cells) and transiently transfected with 2 μg of pcDNA3-HA-Hdh-TKR plasmid with 2 μg of a Ca^2+-reporter aequorin plasmid and 2 μg of Gαq plasmid using 18 μL of FuGENE6 transfection reagent (Promega). The cells were washed in assay buffer including phenol red-free DMEM/F-12 with 0.1% bovine serum albumin (BSA) and 1% P/S and collected by brief centrifugation. Probenecid (1.25 mM final concentration, Invitrogen) and coelenterazine (5 μM, Gold Biotech., St. Louis, MO, USA) were added to resuspended CHO-K1 cells in 5 mL of assay buffer and the cells were gently agitated for 2.5 h using a magnetic stirrer at room temperature and shielded from light. […] While stirring gently, 50 μL of the cell suspension was injected into a luminescence microplate reader (Berthold Tech.), and luminescence was recorded for 20 s and for a further 10 s after injection of the assay buffer, including 0.2% Triton X-100 to measure the total Ca^2+ response. […]

[4] = tested on: Hdh-TKRS; experiment: Ca2+ mobilization assay (aequorin luminescence) in Hdh-TKRS-transfected CHO-K1 cells; format: cell-based, Haliotis discus hannai; details: Hdh-TKRS- and aequorin-expressing CHO-K1 cells; luminescence relative to maximal response at 10^-6 M; n = 3 or 4; read-out: EC50 on intracellular Ca2+ mobilization
Method: as §2

[5] = tested on: Hdh-TKRL; experiment: CRE-Luc luciferase reporter assay in Hdh-TKRL-expressing HEK293 cells; format: cell-based, Haliotis discus hannai; details: for EC50: HEK293 cells, peptide treatment 6 h, Supplementary Table 4, read-out: EC50 for Hdh-TKRL activation, CRE-Luc reporter
Method: (§3) Human embryonic kidney 293 (HEK293) cells were maintained in Dulbecco’s modified Eagle medium (DMEM; Gibco, Loughborough, UK) containing 10% fetal bovine serum (FBS; Hyclone, GE Healthcare, Chicago, IL, USA) and 1% penicillin/streptomycin (P/S; Invitrogen) at 37°C in 5% CO2. Sixteen hours before transfection, HEK293 cells were seeded into 24-well plates (5 × 10^4 cells/well). Transfection and luciferase activities were analyzed as previously described ([39]). Briefly, HEK293 cells were transfected with 100 ng of pcDNA3-HA expression plasmid containing Hdh-TKR (pcDNA3-HA-Hdh-TKR) or vehicle pcDNA3-HA plasmid using 0.9 μL of a polyethyleneimine transfection reagent (Sigma-Aldrich, St. Louis, MO, USA), along with 100 ng of a luciferase reporter plasmid containing cAMP response element (CRE-Luc) or serum response element (SRE-Luc), and 100 ng of a pRSV-β-galactosidase expression plasmid as an internal control. At 3 h after transfection, the culture medium was replaced by new DMEM with 1% P/S and 10% FBS, and the HEK293 cells were cultured for a further 30 h and then maintained in DMEM without FBS for 16 h. Finally, the HEK293 cells were treated with synthesized peptides, forskolin (Sigma-Aldrich), 12-O-tetradecanoylphorbol-13-acetate (TPA; Sigma-Aldrich), or an equal volume of peptide-free medium (as vehicle control) for 6 h. Luciferase activity was analyzed using a microplate-luminometer (Berthold Tech., Bad Wildbad, Germany) and normalized to the β-galactosidase activity, detected by absorbance at 405 nm using a microplate reader (Tecan, Mannedorf, Switzerland).

[6] = tested on: Hdh-TKRL; experiment: SRE-Luc luciferase reporter assay in Hdh-TKRL-expressing HEK293 cells; format: cell-based, Haliotis discus hannai; details: for EC50: HEK293 cells, peptide treatment 6 h, Supplementary Table 4, read-out: EC50 for Hdh-TKRL activation, SRE-Luc reporter
Method: as §3

[7] = tested on: Hdh-TKRS; experiment: CRE-Luc luciferase reporter assay in Hdh-TKRS-expressing HEK293 cells; format: cell-based, Haliotis discus hannai; details: for EC50: HEK293 cells, peptide treatment 6 h, Supplementary Table 3, read-out: EC50 for Hdh-TKRS activation, CRE-Luc reporter
Method: as §3

[8] = tested on: Hdh-TKRS; experiment: SRE-Luc luciferase reporter assay in Hdh-TKRS-expressing HEK293 cells; format: cell-based, Haliotis discus hannai; details: for EC50: HEK293 cells, peptide treatment 6 h, Supplementary Table 3, read-out: EC50 for Hdh-TKRS activation, SRE-Luc reporter
Method: as §3

[9] = molecular target: Hdh-TKRL (tachykinin receptor, long isoform) (Haliotis discus hannai)
[10] = molecular target: Hdh-TKRS (tachykinin receptor, short isoform) (Haliotis discus hannai)
[11] = Hdh-TKRL-transfected HEK293 cells, n = 3
[12] = Hdh-TKRS-transfected HEK293 cells, n = 3

Molecule: COc1ccc2c(c1)c(C1=C(c3c[nH]c4ccccc34)C(=O)NC1=O)cn2CCCN(C)C [Gö6983]
- effect of inhibitor on Hdh-TKRL-mediated phosphorylation of ERK1/2 [1]: almost abolished
- effect of inhibitor on Hdh-TKRS-mediated phosphorylation of ERK1/2 [2]: almost abolished

Molecule: O=S(=O)(NCCNC/C=C/c1ccc(Br)cc1)c1cccc2cnccc12 [H89]
- effect of inhibitor on Hdh-TKRL-mediated phosphorylation of ERK1/2 [1]: decreased

Molecule: CC(C)[C@H](NC(=O)CNC(=O)[C@H](Cc1c[nH]cn1)NC(=O)[C@H](Cc1ccccc1)NC(=O)CNC(=O)[C@H](Cc1ccccc1)NC(=O)[C@H](Cc1c[nH]cn1)NC(=O)[C@@H]1CCCN1C(=O)[C@@H]1CCC(=O)N1)C(=O)N[C@@H](CCCNC(=N)N)C(N)=O [Hdh-TK1-3] ([pGlu]PHFGFHGVR-NH2)
- EC50 [3]: 1.1 nM
- EC50 [4]: 1.7 nM
- EC50 [5]: 284 nM
- EC50 [6]: 155 nM
- EC50 [7]: 15.1 nM
- EC50 [8]: 171 nM

Molecule: APGWamide [abalone APGWamide peptide used as a negative control, reference compound]
- CRE-Luc reporter activity (in words) [5, 11]: did not activate
- SRE-Luc reporter activity (in words) [6, 11]: did not activate
- CRE-Luc reporter activity (in words) [7, 12]: did not activate
- SRE-Luc reporter activity (in words) [8, 12]: did not activate

B1: Hdh-TK1-3 (peptide)
peptide: [pGlu]PHFGFHGVR-NH2
SMILES: CC(C)[C@H](NC(=O)CNC(=O)[C@H](Cc1c[nH]cn1)NC(=O)[C@H](Cc1ccccc1)NC(=O)CNC(=O)[C@H](Cc1ccccc1)NC(=O)[C@H](Cc1c[nH]cn1)NC(=O)[C@@H]1CCCN1C(=O)[C@@H]1CCC(=O)N1)C(=O)N[C@@H](CCCNC(=N)N)C(N)=O
- EC50 of intracellular Ca2+ mobilization (aequorin luminescence) in Hdh-TKRL-transfected CHO-K1 cells [9]: 1.1 nM
- EC50 of intracellular Ca2+ mobilization (aequorin luminescence) in Hdh-TKRS-transfected CHO-K1 cells [10]: 1.7 nM

Molecule: TELGFGYVGSR-NH2 [Hdh-TK1-2]
- EC50 of intracellular Ca2+ mobilization (aequorin luminescence) in Hdh-TKRL-transfected CHO-K1 cells [9]: 32 nM
- EC50 of intracellular Ca2+ mobilization (aequorin luminescence) in Hdh-TKRS-transfected CHO-K1 cells [10]: 46 nM

Molecule: FGYVGSR-NH2 [Hdh-TK1-1]
- EC50 of intracellular Ca2+ mobilization (aequorin luminescence) in Hdh-TKRL-transfected CHO-K1 cells [9]: 9.4 nM
- EC50 of intracellular Ca2+ mobilization (aequorin luminescence) in Hdh-TKRS-transfected CHO-K1 cells [10]: 14.7 nM

Next, values leading:

- EC50 [3]: 5.2 nM
- EC50 [4]: 4 nM
- EC50 [5]: 1100 nM
- EC50 [6]: 141 nM
- EC50 [7]: 180 nM
- EC50 [8]: 3340 nM
Molecule: CC(C)[C@H](NC(=O)[C@H](Cc1ccccc1)NC(=O)CNC(=O)[C@H](Cc1ccccc1)NC(=O)[C@H](Cc1c[nH]cn1)NC(=O)[C@H](CCCNC(=N)N)NC(=O)CN)C(=O)NCC(=O)N[C@@H](CO)C(=O)N[C@@H](CCCNC(=N)N)C(N)=O [Hdh-TK2-1] (H-GRHFGFVGSR-NH2)

- EC50 of intracellular Ca2+ mobilization (aequorin luminescence) in Hdh-TKRL-transfected CHO-K1 cells [9]: 5.2 nM
- EC50 of intracellular Ca2+ mobilization (aequorin luminescence) in Hdh-TKRS-transfected CHO-K1 cells [10]: 4 nM
Molecule: GRHFGFVGSR-NH2 [Hdh-TK2-1]

- EC50 of intracellular Ca2+ mobilization (aequorin luminescence) in Hdh-TKRL-transfected CHO-K1 cells [9]: 0.7 nM
- EC50 of intracellular Ca2+ mobilization (aequorin luminescence) in Hdh-TKRS-transfected CHO-K1 cells [10]: 1.2 nM
Molecule: KPHFGFHGSR-NH2 [Hdh-TK2-2]
